Source: US7326788B2, “Quinolinone derivatives as inhibitors of c-fms kinase” (Janssen Pharmaceutica N.V., priority 2003, dated 2008)
pIC50: −log10 of the molar value.

Each molecule was assayed against T1, c-fms (Homo sapiens, UniProt P07333) (assay: c-fms autophosphorylation, fluorescence polarization competition immunoassay). Conditions: 10 nM c-fms, 1 mM ATP, 5 mM MgCl2, 2% DMSO; averages of three independent measurements.
T1 construct: 3DP
Type: biochemical
Protocol: The assay was performed in black 96-well microplates (LJL BioSystems). The assay buffer used was 100 mM HEPES, pH 7.5, 1 mM DTT, 0.01% (v/v) Tween-20. Compounds were diluted in assay buffer containing 4% DMSO just prior to the assay. […] The kinase reaction was initiated by adding 2 μL of 5 mM ATP (Sigma) in assay buffer. The final concentrations in the assay were 10 nM c-fms, 1 mM ATP, 5 mM MgCl2, 2% DMSO. Control reactions were ran in each plate: in positive and negative control wells, assay buffer (made 4% in DMSO) was substituted for the compound; in addition, positive control wells received 1.2 μL of 50 mM EDTA.
The plates were incubated at room temperature for 45 min. At the end of the incubation, the reaction was quenched with 1.2 μL of 50 mM EDTA (EDTA was not added to the positive control wells at this point; see above). Following a 5-min incubation, each well received 10 μL of a 1:1:3 mixture of anti-phosphotyrosine antibody, 10X, PTK green tracer, 10X (vortexed), FP dilution buffer, respectively (all from PanVera, cat. #P2837). The plate was covered, incubated for 30 min at room temperature and the fluorescence polarization was read on the Analyst. The instrument settings were: 485 nm excitation filter; 530 nm emission filter; Z height: middle of well; G factor: 0.93. […] The reported IC50 values are averages of three independent measurements.

T1 sequence (P07333 20-972): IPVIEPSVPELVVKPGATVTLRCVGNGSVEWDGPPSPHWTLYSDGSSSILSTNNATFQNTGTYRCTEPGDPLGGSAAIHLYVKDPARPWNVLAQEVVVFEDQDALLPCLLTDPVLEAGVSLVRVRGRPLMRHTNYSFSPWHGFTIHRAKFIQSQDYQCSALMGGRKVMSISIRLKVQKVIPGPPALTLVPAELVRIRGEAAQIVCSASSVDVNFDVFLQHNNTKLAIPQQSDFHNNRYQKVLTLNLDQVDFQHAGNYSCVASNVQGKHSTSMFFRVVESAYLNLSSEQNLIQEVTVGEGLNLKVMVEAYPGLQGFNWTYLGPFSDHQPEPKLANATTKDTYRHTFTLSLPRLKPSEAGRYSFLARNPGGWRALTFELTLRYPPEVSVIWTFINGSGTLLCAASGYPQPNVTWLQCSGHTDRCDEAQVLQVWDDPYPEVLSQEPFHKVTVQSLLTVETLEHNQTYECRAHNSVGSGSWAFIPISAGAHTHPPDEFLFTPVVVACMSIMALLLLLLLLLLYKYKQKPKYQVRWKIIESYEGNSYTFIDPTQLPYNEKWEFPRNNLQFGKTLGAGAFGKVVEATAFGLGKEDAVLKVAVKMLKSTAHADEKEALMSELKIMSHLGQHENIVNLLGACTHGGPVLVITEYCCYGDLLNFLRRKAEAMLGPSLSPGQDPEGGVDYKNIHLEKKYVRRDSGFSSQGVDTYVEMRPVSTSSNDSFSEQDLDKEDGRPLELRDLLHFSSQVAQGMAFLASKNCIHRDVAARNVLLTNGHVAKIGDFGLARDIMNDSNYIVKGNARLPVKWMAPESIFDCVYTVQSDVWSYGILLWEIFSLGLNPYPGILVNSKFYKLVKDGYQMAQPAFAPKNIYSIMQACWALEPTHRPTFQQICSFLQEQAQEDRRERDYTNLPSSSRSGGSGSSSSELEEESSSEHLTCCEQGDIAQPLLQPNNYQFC

Row | Structure (SMILES) | pIC50
1 | Cc1cc(-c2c(-c3ccccc3)c3cccc(Cl)c3[nH]c2=O)on1 | < 5.00
2 | Cc1cc(-c2c(N3CCC(C)(C)CC3)c3cc(Cl)ccc3[nH]c2=O)on1 | 6.00 to 6.30
3 | O=c1[nH]c2ccc(Cl)cc2c(-c2ccccc2)c1-c1cccnc1 | 5.00 to 6.00
4 | O=c1[nH]c2ccc(Cl)cc2c(-c2ccccc2)c1-c1cncc(Br)c1 | 5.00 to 6.00
5 | O=c1[nH]c2ccc(Cl)cc2c(-c2ccccc2)c1-c1cn(Cc2ccccc2)nn1 | 6.00 to 6.30
6 | O=c1[nH]c2ccc(Cl)cc2c(-c2ccccc2)c1-c1ccccn1 | 5.00 to 6.00
7 | CC(C)(C)c1cc(-c2c(-c3ccccc3)c3cc(Cl)ccc3[nH]c2=O)on1 | > 6.30
8 | CCOC(=O)c1cccc(-c2c(-c3ccccc3)c3cc(Cl)ccc3[nH]c2=O)c1 | < 5.00
9 | O=c1[nH]c2ccc(Cl)cc2c(-c2ccccc2)c1-c1cc(CCc2ccccc2)no1 | 5.00 to 6.00
10 | O=C(O)c1cc(-c2c(-c3ccccc3)c3cc(Cl)ccc3[nH]c2=O)on1 | > 6.30
11 | CC(C)Cc1coc(-c2c(-c3ccccc3)c3cc(Cl)ccc3[nH]c2=O)n1 | < 5.00
12 | CC(=O)Nc1cc(-c2c(-c3ccccc3)c3cc(Cl)ccc3[nH]c2=O)on1 | 5.00 to 6.00
13 | Cc1cc(-c2c(-c3cc4ccccc4s3)c3cc(Cl)ccc3[nH]c2=O)on1 | 6.00 to 6.30
14 | O=c1[nH]c2ccc(Br)cc2c(-c2ccccc2)c1-c1cnc[nH]1 | > 6.30
15 | O=c1[nH]c2ccc(Cl)cc2c(-c2ccccc2)c1-c1nnn[nH]1 | < 5.00
16 | O=c1[nH]c2ccc(Cl)cc2c(-c2ccccc2)c1-c1nc2ccccc2[nH]1 | 5.00 to 6.00
17 | Cc1cc(-c2c(N3CCCCC3)c3cc(Cl)ccc3[nH]c2=O)on1 | > 6.30

Further lines, results first:

Row | pIC50 | Structure (SMILES)
18 | 5.00 to 6.00 | Cc1cc(-c2c(-c3ccccc3)c3cc(O)ccc3[nH]c2=O)on1
19 | > 6.30 | Cc1cc(-c2c(-c3ccccc3F)c3cc(Cl)ccc3[nH]c2=O)on1
20 | 5.00 to 6.00 | Cc1cc(-c2c(-c3ccc4ccccc4c3)c3cc(Cl)ccc3[nH]c2=O)on1
21 | 5.00 to 6.00 | Cc1cc(-c2c(-c3cccnc3)c3cc(Cl)ccc3[nH]c2=O)on1
22 | > 6.30 | C=Cc1ccc(-c2c(-c3cc(C)no3)c(=O)[nH]c3ccc(C#N)cc23)cc1
23 | 5.00 to 6.00 | Cc1cc(-c2c(-c3cc4ccccc4o3)c3cc(Cl)ccc3[nH]c2=O)on1
24 | > 6.30 | CCc1ccc(-c2c(-c3cnc[nH]3)c(=O)[nH]c3ccc(C#N)cc23)cc1
25 | > 6.30 | Cc1cc(-c2c(C3=CCCCCC3)c3cc(C#N)ccc3[nH]c2=O)on1
26 | > 6.30 | Cc1cc(-c2c(-c3ccccc3)c3cc(Br)ccc3[nH]c2=O)on1
27 | 6.00 to 6.30 | Cc1cc(-c2c(-c3ccc(OC(F)(F)F)cc3)c3cc(C#N)ccc3[nH]c2=O)on1
28 | > 6.30 | Cc1cc(-c2c(-c3cccc(O)c3)c3cc(Cl)ccc3[nH]c2=O)on1
29 | < 5.00 | Cc1cc(-c2c(-c3ccccc3)c3cc(CO)ccc3[nH]c2=O)on1
30 | < 5.00 | Cc1cc(-c2c(-c3ccccc3)c3ccc(Cl)cc3[nH]c2=O)on1
31 | > 6.30 | Cc1cc(-c2c(-c3cccs3)c3cc(Cl)ccc3[nH]c2=O)on1
32 | > 6.30 | Cc1cc(-c2c(-c3ccc(C(C)C)cc3)c3cc(C#N)ccc3[nH]c2=O)on1
33 | 6.00 to 6.30 | COc1cccc(-c2c(-c3cc(C)no3)c(=O)[nH]c3ccc(Cl)cc23)c1
34 | < 5.00 | Cc1cc(-c2c(-c3ccccc3)c3cc(C(O)CO)ccc3[nH]c2=O)on1 (stereo not shown)
35 | 5.00 to 6.00 | Cc1cc(-c2c(-c3ccccn3)c3cc(Cl)ccc3[nH]c2=O)on1
36 | > 6.30 | CCc1ccc(-c2c(-c3cc(C)no3)c(=O)[nH]c3ccc(C#N)cc23)cc1
37 | 5.00 to 6.00 | Cc1cc(-c2c(-c3ccccc3)c3cc(C(=O)O)ccc3[nH]c2=O)on1
